Experimental data taken from patent US12215112B2, “CD151 inhibitors” (ESFAM BIOTECH PTY LTD, priority 2020, dated 2025).

Test system: PC3 cells
Test: xCELLigence RTCA real-time cell invasion assay (CIM plate, Matrigel) on PC3 prostate cancer cells
Assay type: cell-based
Settings: Homo sapiens, PC-3, compound 25 uM to 1 uM, cell index monitored for 72 hours, four-parameter dose-response curve, read-out: IC50, Effect of compounds on the invention on prostate cancer cells
Procedure: The media antibiotics and serum were purchased from Invitrogen (Life Technologies). PC3 cells were purchased from ATCC (Granville, NSW, Australia). PC3 cells were expanded in cell culture T75 flasks with vented cap and then preserved in low passage number. The medium used for PC3 cells was RPMI (GlutaMAX) supplemented with 10% FCS and 1% penicillin/streptomycin (culture media). The cells were maintained at 37° C. in a humidified 95% (v/v) air/5% (v/v) CO2 environment and were grown up to 80% confluence.
XCELLigence® real-time cell analysis (RTCA) instrument (ACEA Biosciences), 16-well ACEA CIM-Plates, 16-well ACEA E-Plat and assembly tool were purchased from ELITechGroup empowering IVD (Braeside, Australia). The Matrigel was purchased from Corning (Australia).
To measure cell invasion under compound treatment the upper chamber of the CIM plate was coated with 5% Matrigel diluted in SF RPMI (20 μl) and incubated in a 37° C. tissue culture incubator for four hours. Using the assembly tool to support the chambers the lower chamber was filled with (160 μl) of culture media containing the compound in specific concertation from 25 uM to 1 uM and two controls (DMSO 0.1% and ESFAM 4C 10 uM) (see the schematic in FIG. 1). Once the upper chamber was placed on the top of the lower chamber it was loaded with (40 μl) serum-free (SF) RPMI containing the compound as previously stated. After one hour calibration in 37° C., plates were placed into the xCELLigence station, and the base-line electric impedance was measured to confirm that all wells and connections were working properly. In case of connection problem, the software automatically informs the researcher about the nature of the problem in the message section. Subsequently cells were trypsinized and upon harvesting and counting they were diluted in SF RPMI to desired density (3×10^4) and seeded (100 μl) in the wells. After 30 minutes of incubation in room-temperature to allow cell attachment the plates were loaded in the xCELLigence RTCA DP machine. The cell invasion was monitored in real-time for the duration of 72 hours. […]
The xCELLigence system automatically monitored the electrical impedance value of each well and expressed as a cell index (CI) value for the duration of 72 hours. The data for treatments was automatically grouped as the mean±standard deviation. The software version used in these experiments is 1.2.1. The electronic record of the experimental data is automatically saved in file that cannot be altered or changed by the researcher.
Statistical analysis was performed using Microsoft® Office EXCEL and GraphPad Prism 7. The IC50 was calculated from the four-parameter dose-response curve (log(inhibitor) vs. response-variable slopes). Where the row-data was inserted in GraphPad Prism 7 (Dose response x-log(dose)) and analysed for XY nonlinear regression (curve fit), dose response-inhibition, log(inhibitor) vs response variable slope (four parameters). For the IC90 calculation the log(IC50)=log(IC90)-(1/HillSlope)*log(9) equation was used in EXCEL based on the raw data extracted from xCELLigence system and the dose-response curve.

SMILES | IC50 [µM]
CC(C)(C)c1c(C(=O)Nc2cccc(O)c2)nn2c(-c3cn[nH]c3)cc(N3Cc4ccccc4C3)nc12 [Cmpd 85] | 6.51
CN(Cc1ccccc1)c1cc(-c2cn[nH]c2)n2nc(C(=O)Nc3cccc(O)c3)cc2n1 [Compound 1, 5-(benzyl(methyl)amino)-N-(3-hydroxyphenyl)-7-(1H-pyrazol-4-yl)pyrazolo[1,5-a]pyrimidine-2-carboxamide] | 6.9
CN(Cc1ccccc1)c1cc(-c2cn[nH]c2)n2nc(C(N)=O)cc2n1 [Compound 2, 5-(benzyl(methyl)amino)-7-(1H-pyrazol-4-yl)pyrazolo[1,5-a]pyrimidine-2-carboxamide] | 16.9
CN(Cc1ccccc1)c1cc(-c2cn[nH]c2)n2nc(C(=O)NCc3ccccc3)cc2n1 [Compound 3, N-benzyl-5-(benzyl(methyl)amino)-7-(1H-pyrazol-4-yl)pyrazolo[1,5-a]pyrimidine-2-carboxamide] | 11.9
CN(Cc1ccccc1)c1cc(-c2cn[nH]c2)n2nc(C(=O)Nc3ccc(O)cc3)cc2n1 [Compound 4, 5-(benzyl(methyl)amino)-N-(4-hydroxyphenyl)-7-(1H-pyrazol-4-yl)pyrazolo[1,5-a]pyrimidine-2-carboxamide] | 0.81
COc1cccc(NC(=O)c2cc3nc(N(C)Cc4ccccc4)cc(-c4cn[nH]c4)n3n2)c1 [Compound 5, 5-(benzyl(methyl)amino)-N-(3-methoxyphenyl)-7-(1H-pyrazol-4-yl)pyrazolo[1,5-a]pyrimidine-2-carboxamide] | 1.2
CN(Cc1ccccc1)c1cc(-c2cn[nH]c2)n2nc(C(=O)Nc3cccnc3)cc2n1 [Compound 6, 5-(benzyl(methyl)amino)-7-(1H-pyrazol-4-yl)-N-(pyridin-3-yl)pyrazolo[1,5-a]pyrimidine-2-carboxamide] | 11.7
CN(Cc1ccccc1)c1cc(-c2cn[nH]c2)n2nc(C(=O)Nc3ccncc3)cc2n1 [Compound 7, 5-(benzyl(methyl)amino)-7-(1H-pyrazol-4-yl)-N-(pyridin-4-yl)pyrazolo[1,5-a]pyrimidine-2-carboxamide] | 9.49
COc1cc(NC(=O)c2cc3nc(N(C)Cc4ccccc4)cc(-c4cn[nH]c4)n3n2)ccn1 [Compound 8, 5-(benzyl(methyl)amino)-N-(2-methoxypyridin-4-yl)-7-(1H-pyrazol-4-yl)pyrazolo[1,5-a]pyrimidine-2-carboxamide] | 5.2
COc1cc(NC(=O)c2cc3nc(N(C)Cc4ccccc4)cc(-c4cn[nH]c4)n3n2)cc(OC)c1 [Compound 9, 5-(benzyl(methyl)amino)-N-(3,5-dimethoxyphenyl)-7-(1H-pyrazol-4-yl)pyrazolo[1,5-a]pyrimidine-2-carboxamide] | 4.28
Cc1noc(C)c1NC(=O)c1cc2nc(N(C)Cc3ccccc3)cc(-c3cn[nH]c3)n2n1 [Compound 10, 5-(benzyl(methyl)amino)-N-(3,5-dimethylisoxazol-4-yl)-7-(1H-pyrazol-4-yl)pyrazolo[1,5-a]pyrimidine-2-carboxamide] | 3.71
CN(Cc1ccccc1)c1cc(-c2cn[nH]c2)n2nc(C(=O)Nc3cn[nH]c3)cc2n1 [Compound 11, 5-(benzyl(methyl)amino)-N,7-di(1H-pyrazol-4-yl)pyrazolo[1,5-a]pyrimidine-2-carboxamide] | 9.71
CN(Cc1ccccc1)c1cc(-c2cn[nH]c2)n2nc(C(=O)Nc3ccc(C#N)cc3)cc2n1 [Compound 12, 5-(benzyl(methyl)amino)-N-(4-cyanophenyl)-7-(1H-pyrazol-4-yl)pyrazolo[1,5-a]pyrimidine-2-carboxamide] | 6.64
CN(Cc1ccccc1)c1cc(-c2cn[nH]c2)n2nc(C(=O)Nc3cccc(C#N)c3)cc2n1 [Compound 13, 5-(benzyl(methyl)amino)-N-(3-cyanophenyl)-7-(1H-pyrazol-4-yl)pyrazolo[1,5-a]pyrimidine-2-carboxamide] | 4.71
COc1cccc(NC(=O)c2cc3nc(N(C)[C@@H](C)c4ccccc4)cc(-c4cn[nH]c4)n3n2)c1 [Compound 14, (S)—N-(3-methoxyphenyl)-5-(methyl(1-phenylethyl)amino)-7-(1H-pyrazol-4-yl)pyrazolo[1,5-a]pyrimidine-2-carboxamide] | 1.96

Results, then the compound that gave them:

IC50 [µM] | SMILES
1.02 | C[C@@H](c1ccccc1)N(C)c1cc(-c2cn[nH]c2)n2nc(C(=O)Nc3cccc(O)c3)cc2n1 [Compound 15, (S)—N-(3-hydroxyphenyl)-5-(methyl(1-phenylethyl)amino)-7-(1H-pyrazol-4-yl)pyrazolo[1,5-a]pyrimidine-2-carboxamide]
150 | C[C@@H](c1ccccc1)N(C)c1cc(-c2cn[nH]c2)n2nc(C(=O)Nc3ccccc3)cc2n1 [Compound 16, (S)-5-(methyl(1-phenylethyl)amino)-N-phenyl-7-(1H-pyrazol-4-yl)pyrazolo[1,5-a]pyrimidine-2-carboxamide]
9.67 | C[C@@H](c1ccccc1)N(C)c1cc(-c2cn[nH]c2)n2nc(C(N)=O)cc2n1 [Compound 17, (S)-5-(methyl(1-phenylethyl)amino)-7-(1H-pyrazol-4-yl)pyrazolo[1,5-a]pyrimidine-2-carboxamide]
7.95 | CC(C)Oc1cccc(NC(=O)c2cc3nc(N(C)Cc4ccccc4)cc(-c4cn[nH]c4)n3n2)c1 [Compound 18, 5-(benzyl(methyl)amino)-N-(3-isopropoxyphenyl)-7-(1H-pyrazol-4-yl)pyrazolo[1,5-a]pyrimidine-2-carboxamide]
12.8 | CN(Cc1ccccc1)c1cc(-c2cn[nH]c2)n2nc(C(=O)Nc3cccc(OC(F)F)c3)cc2n1 [Compound 19, 5-(benzyl(methyl)amino)-N-(3-(difluoromethoxy)phenyl)-7-(1H-pyrazol-4-yl)pyrazolo[1,5-a]pyrimidine-2-carboxamide]
3.56 | CN(C)c1cccc(NC(=O)c2cc3nc(N(C)Cc4ccccc4)cc(-c4cn[nH]c4)n3n2)c1 [Compound 20, 5-(benzyl(methyl)amino)-N-(3-(dimethylamino)phenyl)-7-(1H-pyrazol-4-yl)pyrazolo[1,5-a]pyrimidine-2-carboxamide]
3.71 | CN1CCN(c2cccc(NC(=O)c3cc4nc(N(C)Cc5ccccc5)cc(-c5cn[nH]c5)n4n3)c2)CC1 [Compound 22, 5-(benzyl(methyl)amino)-N-(3-(4-methylpiperazin-1-yl)phenyl)-7-(1H-pyrazol-4-yl)pyrazolo[1,5-a]pyrimidine-2-carboxamide]
2.83 | O=C(Nc1ccccc1)c1cc2nc(N3Cc4ccccc4C3)cc(-c3cn[nH]c3)n2n1 [Compound 23, 5-(isoindolin-2-yl)-N-phenyl-7-(1H-pyrazol-4-yl)pyrazolo[1,5-a]pyrimidine-2-carboxamide]
1.42 | O=C(Nc1cccc(O)c1)c1cc2nc(N3Cc4ccccc4C3)cc(-c3cn[nH]c3)n2n1 [Compound 24, N-(3-hydroxyphenyl)-5-(isoindolin-2-yl)-7-(1H-pyrazol-4-yl)pyrazolo[1,5-a]pyrimidine-2-carboxamide]
2.43 | COc1cccc(NC(=O)c2cc3nc(N4Cc5ccccc5C4)cc(-c4cn[nH]c4)n3n2)c1 [Compound 25, 5-(isoindolin-2-yl)-N-(3-methoxyphenyl)-7-(1H-pyrazol-4-yl)pyrazolo[1,5-a]pyrimidine-2-carboxamide]
9.74 | O=C(Nc1cccc(OC(F)(F)F)c1)c1cc2nc(N3Cc4ccccc4C3)cc(-c3cn[nH]c3)n2n1 [Compound 26, 5-(isoindolin-2-yl)-7-(1H-pyrazol-4-yl)-N-(3-(trifluoromethoxy)phenyl)pyrazolo[1,5-a]pyrimidine-2-carboxamide]
1.99 | CCOc1cccc(NC(=O)c2cc3nc(N4Cc5ccccc5C4)cc(-c4cn[nH]c4)n3n2)c1 [Compound 27, N-(3-ethoxyphenyl)-5-(isoindolin-2-yl)-7-(1H-pyrazol-4-yl)pyrazolo[1,5-a]pyrimidine-2-carboxamide]
2.03 | CC(C)Oc1cccc(NC(=O)c2cc3nc(N4Cc5ccccc5C4)cc(-c4cn[nH]c4)n3n2)c1 [Compound 28, 5-(isoindolin-2-yl)-N-(3-isopropoxyphenyl)-7-(1H-pyrazol-4-yl)pyrazolo[1,5-a]pyrimidine-2-carboxamide]
